The subject of the test is L1210 leukemia ip in BDF1 mice, survival T/C. The experiment in a line: NCI In Vivo Anticancer Drug Screen. Data for tumor model L1210 Leukemia (intraperitoneal) in B6D2F1 (BDF1) mice. The following applies: endpoint: mean survival time, higher = longer survival. The procedure, abridged:
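Survival endpoint. Drug-treated group vs vehicle group, expressed as T divided by C. Tumor passaged by transplantation.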

Setting [1] is: dose: 100.0 mg/kg/injection, schedule: Q01DX001 (ip), vehicle: saline.
Where [2] appears, read: dose: 200.0 mg/kg/injection, schedule: Q04DX003 (ip), vehicle: saline.
Setting [3] is: dose: 200.0 mg/kg/injection, schedule: Q01DX001 (ip), vehicle: saline.
[4] abbreviates: dose: 400.0 mg/kg/injection, schedule: Q01DX001 (ip), vehicle: saline.
Where [5] appears, read: dose: 100.0 mg/kg/injection, schedule: Q04DX002 (ip), vehicle: Klucel (hydroxypropylcellulose) (HPC).
The mark [6] stands for this setting: dose: 100.0 mg/kg/injection, schedule: Q04DX003 (ip), vehicle: Klucel (hydroxypropylcellulose) (HPC).
Setting [7] is: dose: 200.0 mg/kg/injection, schedule: Q04DX003 (ip), vehicle: Klucel (hydroxypropylcellulose) (HPC).
[8] abbreviates: dose: 400.0 mg/kg/injection, schedule: Q04DX003 (ip), vehicle: Klucel (hydroxypropylcellulose) (HPC).
Setting [9] is: dose: 100.0 mg/kg/injection, schedule: Q04DX003 (ip), vehicle: saline with Tween-80.
[10] abbreviates: dose: 200.0 mg/kg/injection, schedule: Q04DX003 (ip), vehicle: saline with Tween-80.
Where [11] appears, read: dose: 400.0 mg/kg/injection, schedule: Q04DX003 (ip), vehicle: saline with Tween-80.
Where [12] appears, read: dose: 100.0 mg/kg/injection, schedule: Q01DX009 (ip), vehicle: Klucel (hydroxypropylcellulose) (HPC).
Where [13] appears, read: dose: 200.0 mg/kg/injection, schedule: Q01DX009 (ip), vehicle: Klucel (hydroxypropylcellulose) (HPC).
Setting [14] is: dose: 400.0 mg/kg/injection, schedule: Q01DX009 (ip), vehicle: Klucel (hydroxypropylcellulose) (HPC).

Values joined by “and” are separate entries in the source; they are usually repeats but may differ in a detail not shown here. Equal values may be shown once. Inconclusive results and toxic doses are left out.

As to `c1nnc(NCNc2nncs2)s1`, the T/C was 115 % of control (dose: 2.6 mg/kg/injection, schedule: Q01DX009 (ip), vehicle: Klucel (hydroxypropylcellulose) (HPC)); 124 % of control (dose: 6.0 mg/kg/injection, schedule: Q01DX009 (ip), vehicle: Klucel (hydroxypropylcellulose) (HPC)); 122 % of control (dose: 7.5 mg/kg/injection, schedule: Q01DX009 (ip), vehicle: saline); 121 % of control (dose: 12.0 mg/kg/injection, schedule: Q04DX003 (ip), vehicle: Klucel (hydroxypropylcellulose) (HPC)); 120 % of control (dose: 15.0 mg/kg/injection, schedule: Q01DX009 (ip), vehicle: saline); 122 % of control (dose: 18.0 mg/kg/injection, schedule: Q04DX003 (ip), vehicle: Klucel (hydroxypropylcellulose) (HPC)). Also, the T/C runs as follows: (dose: 19.0 mg/kg/injection, schedule: Q01DX009 (ip), vehicle: saline) 154 % of control; (dose: 20.0 mg/kg/injection, schedule: Q01DX009 (ip), vehicle: Klucel (hydroxypropylcellulose) (HPC)) 109 % of control; (dose: 30.0 mg/kg/injection, schedule: Q01DX009 (ip), vehicle: Klucel (hydroxypropylcellulose) (HPC)) 95 % of control; (dose: 30.0 mg/kg/injection, schedule: Q01DX009 (ip), vehicle: saline) 166 % of control; (dose: 45.0 mg/kg/injection, schedule: Q01DX009 (ip), vehicle: Klucel (hydroxypropylcellulose) (HPC)) 87 % of control; (dose: 45.0 mg/kg/injection, schedule: Q01DX009 (ip), vehicle: saline) 114 % of control. For the same molecule, the T/C was 110 % of control (dose: 50.0 mg/kg/injection, schedule: Q01DX001 (ip), vehicle: saline); 111 % of control (dose: 50.0 mg/kg/injection, schedule: Q04DX003 (ip), vehicle: saline); 115 % of control (dose: 60.0 mg/kg/injection, schedule: Q01DX009 (ip), vehicle: saline); 117 % of control under setting [1]; 167 % of control and 168 % of control under setting [2]; 106 % of control (dose: 300.0 mg/kg/injection, schedule: Q04DX003 (ip), vehicle: Klucel (hydroxypropylcellulose) (HPC)). Where the note is “dose: 300.0 mg/kg/injection, schedule: Q04DX003 (ip), vehicle: saline”, the T/C is 113 % of control.

As to `CCCCC#CCl`, the T/C is, setting by setting: under setting [1], 101 % of control; under setting [3], 94 % of control; under setting [4], 94 % of control.

In the case of `c1ccc(C2C(CN3CCCCCC3)C2c2ccccc2)cc1` (centres undefined), the T/C was 88 % of control (dose: 12.5 mg/kg/injection, schedule: Q04DX002 (ip), vehicle: Klucel (hydroxypropylcellulose) (HPC)); 95 % of control and 98 % of control (dose: 25.0 mg/kg/injection, schedule: Q04DX002 (ip), vehicle: Klucel (hydroxypropylcellulose) (HPC)); 98 % of control and 101 % of control and 91 % of control (dose: 50.0 mg/kg/injection, schedule: Q04DX002 (ip), vehicle: Klucel (hydroxypropylcellulose) (HPC)); 92 % of control under setting [5].

With `C/C(=C\n1ccccc1=N)C(=O)c1ccc(F)cc1`, the T/C reads like this: under setting [6], 96 % of control; under setting [7], 98 % of control; under setting [8], 100 % of control.

Turning to `Cc1cc2c(cc1C)=NC(=Nc1nc(O)c(O)[nH]1)N=2`, the T/C is 98 % of control under setting [6], 96 % of control under setting [7] and 91 % of control under setting [8].

Regarding `Nc1nc(=S)c2ncn(C3OC(COC(=O)c4ccc(Cl)cc4)C(OC(=O)c4ccc(Cl)cc4)C3OC(=O)c3ccc(Cl)cc3)c2[nH]1` (centres undefined), the T/C was 113 % of control (dose: 3.5 mg/kg/injection, schedule: Q01DX Z (ip), vehicle: carboxymethylcellulose (CMC)); 156 % of control (dose: 12.0 mg/kg/injection, schedule: Q01DX Z (ip), vehicle: carboxymethylcellulose (CMC)); 170 % of control (dose: 12.0 mg/kg/injection, schedule: Q01DX Z (ip), vehicle: saline); 115 % of control (dose: 19.0 mg/kg/injection, schedule: Q01DX Z (ip), vehicle: carboxymethylcellulose (CMC)); 150 % of control (dose: 44.0 mg/kg/injection, schedule: Q01DX Z (ip), vehicle: carboxymethylcellulose (CMC)); 114 % of control (dose: 50.0 mg/kg/injection, schedule: Q01DX Z (ip), vehicle: saline). Moreover, under “dose: 150.0 mg/kg/injection, schedule: Q01DX Z (ip), vehicle: carboxymethylcellulose (CMC)”, the T/C is 108 % of control.

With `NC(CSS(=O)(=O)O)=NC1CCCCC1`, the T/C was 120 % of control (dose: 6.25 mg/kg/injection, schedule: Q04DX002 (ip), vehicle: saline with Tween-80); 113 % of control (dose: 12.5 mg/kg/injection, schedule: Q04DX002 (ip), vehicle: saline with Tween-80); 98 % of control (dose: 25.0 mg/kg/injection, schedule: Q04DX002 (ip), vehicle: saline with Tween-80).

Consider `CC1CCCCC1NC(=O)NCCOC(=O)OCCNC(=O)NC1CCCCC1C` (centres undefined), for which the T/C is, setting by setting: (dose: 100.0 mg/kg/injection, schedule: Q01DX009 (ip), vehicle: saline with Tween-80) 95 % of control; under setting [9], 100 % of control; (dose: 200.0 mg/kg/injection, schedule: Q01DX009 (ip), vehicle: saline with Tween-80) 95 % of control; under setting [10], 91 % of control; (dose: 400.0 mg/kg/injection, schedule: Q01DX009 (ip), vehicle: saline with Tween-80) 90 % of control; under setting [11], 86 % of control.

As for `COC(OC)c1[nH]c(=S)[nH]c(=O)c1CCc1ccccc1`, the T/C is 97 % of control under setting [5]; 97 % of control (dose: 200.0 mg/kg/injection, schedule: Q04DX002 (ip), vehicle: Klucel (hydroxypropylcellulose) (HPC)); 86 % of control (dose: 400.0 mg/kg/injection, schedule: Q04DX002 (ip), vehicle: Klucel (hydroxypropylcellulose) (HPC)).

Consider `S=C(NCc1cccc2ccccc12)Nc1ccccc1`, for which the T/C was 95 % of control under setting [12], 97 % of control under setting [13] and 104 % of control under setting [14].

For the molecule `COC(=O)C(C)C(=O)OC`, the T/C was 93 % of control (dose: 100.0 mg/kg/injection, schedule: Q01DX009 (ip), vehicle: acetone); 107 % of control (dose: 100.0 mg/kg/injection, schedule: Q04DX003 (ip), vehicle: acetone); 97 % of control (dose: 200.0 mg/kg/injection, schedule: Q01DX009 (ip), vehicle: acetone); 97 % of control (dose: 200.0 mg/kg/injection, schedule: Q04DX003 (ip), vehicle: acetone); 93 % of control (dose: 400.0 mg/kg/injection, schedule: Q01DX009 (ip), vehicle: acetone); 94 % of control (dose: 400.0 mg/kg/injection, schedule: Q04DX003 (ip), vehicle: acetone).

In the case of `C=C1C(=O)N(C)C(C(=O)OC)CC1(O)C(CC)C(=O)OC` (centres undefined), the T/C by setting is: (dose: 18.7 mg/kg/injection, schedule: Q01DX001 (ip), vehicle: saline) 94 % of control; (dose: 37.5 mg/kg/injection, schedule: Q01DX001 (ip), vehicle: saline) 98 % of control; (dose: 75.0 mg/kg/injection, schedule: Q01DX001 (ip), vehicle: saline) 117 % of control; (dose: 150.0 mg/kg/injection, schedule: Q01DX001 (ip), vehicle: saline) 102 % of control.

Take `NC(=O)N/N=C/CSCc1ccccc1`: the T/C is, setting by setting: under setting [9], 102 % of control; under setting [10], 97 % of control; under setting [11], 92 % of control.

In the case of `O=C(O)c1cccc2ccc3ccccc3c12`, the T/C is 121 % of control under setting [1]; 102 % of control (dose: 100.0 mg/kg/injection, schedule: Q04DX003 (ip), vehicle: saline); 101 % of control under setting [3]; 96 % of control under setting [2]; 97 % of control under setting [4]; 96 % of control (dose: 400.0 mg/kg/injection, schedule: Q04DX003 (ip), vehicle: saline).

Regarding `NC(=O)C(Cc1ccc(O)cc1)NC(=O)c1ccccc1` (centres undefined), the T/C under setting [12] was 95 % of control; the T/C under setting [6] was 105 % of control; the T/C under setting [13] was 90 % of control; the T/C under setting [7] was 102 % of control; the T/C under setting [14] is 93 % of control; the T/C under setting [8] was 94 % of control.

(Values after PubChem BioAssay AID248 (DTP/NCI, 2004).)
